According to ChEMBL document CHEMBL5247643, “Discovery and Characterization of BAY-805, a Potent and Selective Inhibitor of Ubiquitin-Specific Protease USP21” (J Med Chem, 2023):
The source made the active and inactive calls. No cut-off for these calls is given here.

Assays:
Conditions in all cases: dose 10-50 µM
[1] = molecular target: T1, Ubiquitin carboxyl-terminal hydrolase 22 (Homo sapiens) (UniProt Q9UPT9); assay: Inhibition of human USP22 (1 to 525 residues) expressed in Sf9 cells using ubiquitin rhodamine 110 as substrate assessed as remaining enzyme activity at 10 to 50 uM by fluorometric assay
T1 sequence (whole entry): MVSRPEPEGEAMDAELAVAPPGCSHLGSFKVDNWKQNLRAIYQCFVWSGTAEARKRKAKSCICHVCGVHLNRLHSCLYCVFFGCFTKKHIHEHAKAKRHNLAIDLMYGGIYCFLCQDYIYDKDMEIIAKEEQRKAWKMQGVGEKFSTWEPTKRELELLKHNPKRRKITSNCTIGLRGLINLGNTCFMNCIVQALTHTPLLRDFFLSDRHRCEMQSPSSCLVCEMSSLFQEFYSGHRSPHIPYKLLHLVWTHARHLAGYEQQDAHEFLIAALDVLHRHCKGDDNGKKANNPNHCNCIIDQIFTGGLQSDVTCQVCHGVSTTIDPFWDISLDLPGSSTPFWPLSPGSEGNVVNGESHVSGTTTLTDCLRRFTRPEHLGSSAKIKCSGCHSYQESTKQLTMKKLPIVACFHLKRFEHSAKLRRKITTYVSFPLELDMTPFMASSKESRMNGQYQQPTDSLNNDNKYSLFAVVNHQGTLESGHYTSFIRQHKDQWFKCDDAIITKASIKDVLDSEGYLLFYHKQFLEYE

[2] = molecular target: Ubiquitin carboxyl-terminal hydrolase 7 (Homo sapiens) (UniProt Q93009); assay: Inhibition of human USP7 (1 to 1102 residues) expressed in Sf9 cells using ubiquitin rhodamine 110 as substrate assessed as remaining enzyme activity at 10 to 50 uM by fluorometric assay
Ubiquitin carboxyl-terminal hydrolase 7 (Homo sapiens), sequence (Q93009 whole entry, looked up, the tested form may be a part): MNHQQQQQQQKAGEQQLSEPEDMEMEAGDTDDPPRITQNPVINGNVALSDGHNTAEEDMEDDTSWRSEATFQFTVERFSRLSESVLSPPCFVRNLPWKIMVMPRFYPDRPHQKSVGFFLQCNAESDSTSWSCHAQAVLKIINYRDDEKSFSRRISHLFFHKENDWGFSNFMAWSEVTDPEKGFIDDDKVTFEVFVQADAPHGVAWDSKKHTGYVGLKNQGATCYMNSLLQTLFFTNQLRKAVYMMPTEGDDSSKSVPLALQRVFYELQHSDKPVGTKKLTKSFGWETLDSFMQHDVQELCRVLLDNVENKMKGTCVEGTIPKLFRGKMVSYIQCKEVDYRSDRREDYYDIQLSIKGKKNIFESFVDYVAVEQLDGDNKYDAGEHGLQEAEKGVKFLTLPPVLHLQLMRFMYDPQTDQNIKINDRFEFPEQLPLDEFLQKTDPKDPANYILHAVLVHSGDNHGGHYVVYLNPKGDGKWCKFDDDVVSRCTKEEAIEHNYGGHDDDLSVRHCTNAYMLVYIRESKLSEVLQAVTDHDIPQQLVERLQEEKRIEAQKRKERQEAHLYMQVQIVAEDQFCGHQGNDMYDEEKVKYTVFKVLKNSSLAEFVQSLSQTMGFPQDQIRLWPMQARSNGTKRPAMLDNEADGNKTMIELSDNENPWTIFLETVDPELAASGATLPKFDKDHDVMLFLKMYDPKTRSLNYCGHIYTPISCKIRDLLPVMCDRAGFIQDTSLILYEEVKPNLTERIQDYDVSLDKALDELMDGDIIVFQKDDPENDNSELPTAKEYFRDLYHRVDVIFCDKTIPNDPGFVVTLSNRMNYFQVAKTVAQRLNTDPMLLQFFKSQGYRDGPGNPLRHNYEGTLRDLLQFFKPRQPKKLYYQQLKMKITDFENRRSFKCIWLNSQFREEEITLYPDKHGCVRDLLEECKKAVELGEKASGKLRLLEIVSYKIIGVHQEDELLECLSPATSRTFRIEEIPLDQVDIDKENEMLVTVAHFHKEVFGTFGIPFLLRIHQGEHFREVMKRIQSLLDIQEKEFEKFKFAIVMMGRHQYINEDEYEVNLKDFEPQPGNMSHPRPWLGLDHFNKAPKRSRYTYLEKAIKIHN

[3] = molecular target: T2, Ubiquitin carboxyl-terminal hydrolase 4 (Homo sapiens) (UniProt Q13107); assay: Inhibition of human USP4 (1 to 932 residues) expressed in Sf9 cells using ubiquitin rhodamine 110 as substrate assessed as remaining enzyme activity at 10 to 50 uM by fluorometric assay
T2 sequence (whole entry): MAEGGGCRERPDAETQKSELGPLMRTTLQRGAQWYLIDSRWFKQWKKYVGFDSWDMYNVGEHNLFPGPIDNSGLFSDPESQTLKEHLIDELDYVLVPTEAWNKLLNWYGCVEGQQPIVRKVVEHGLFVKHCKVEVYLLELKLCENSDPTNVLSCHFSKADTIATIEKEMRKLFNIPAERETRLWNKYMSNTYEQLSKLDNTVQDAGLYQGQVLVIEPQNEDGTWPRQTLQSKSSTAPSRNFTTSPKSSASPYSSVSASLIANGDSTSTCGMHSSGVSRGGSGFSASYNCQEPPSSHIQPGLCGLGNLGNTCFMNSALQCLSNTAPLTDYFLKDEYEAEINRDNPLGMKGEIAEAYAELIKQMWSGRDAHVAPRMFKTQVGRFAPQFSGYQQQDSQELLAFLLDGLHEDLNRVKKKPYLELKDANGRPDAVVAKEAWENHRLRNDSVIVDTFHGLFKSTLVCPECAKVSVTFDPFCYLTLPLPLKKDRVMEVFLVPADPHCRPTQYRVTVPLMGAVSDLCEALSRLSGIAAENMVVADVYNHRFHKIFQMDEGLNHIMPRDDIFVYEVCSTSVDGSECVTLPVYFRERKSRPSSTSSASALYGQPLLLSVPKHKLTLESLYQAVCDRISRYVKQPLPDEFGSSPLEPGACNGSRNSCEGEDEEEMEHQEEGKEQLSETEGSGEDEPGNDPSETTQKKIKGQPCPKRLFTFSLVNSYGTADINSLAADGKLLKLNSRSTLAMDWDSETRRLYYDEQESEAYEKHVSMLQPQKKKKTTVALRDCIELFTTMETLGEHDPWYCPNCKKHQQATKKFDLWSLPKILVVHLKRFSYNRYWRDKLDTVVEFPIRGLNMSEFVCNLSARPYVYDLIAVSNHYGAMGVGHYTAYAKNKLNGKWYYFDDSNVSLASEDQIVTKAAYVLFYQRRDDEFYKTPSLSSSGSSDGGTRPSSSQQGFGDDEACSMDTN

[4] = molecular target: T3, Ubiquitin carboxyl-terminal hydrolase 30 (Homo sapiens) (UniProt Q70CQ3); assay: Inhibition of human USP30 using ubiquitin rhodamine 110 as substrate at 10 to 50 uM by fluorometric assay
T3 sequence (whole entry): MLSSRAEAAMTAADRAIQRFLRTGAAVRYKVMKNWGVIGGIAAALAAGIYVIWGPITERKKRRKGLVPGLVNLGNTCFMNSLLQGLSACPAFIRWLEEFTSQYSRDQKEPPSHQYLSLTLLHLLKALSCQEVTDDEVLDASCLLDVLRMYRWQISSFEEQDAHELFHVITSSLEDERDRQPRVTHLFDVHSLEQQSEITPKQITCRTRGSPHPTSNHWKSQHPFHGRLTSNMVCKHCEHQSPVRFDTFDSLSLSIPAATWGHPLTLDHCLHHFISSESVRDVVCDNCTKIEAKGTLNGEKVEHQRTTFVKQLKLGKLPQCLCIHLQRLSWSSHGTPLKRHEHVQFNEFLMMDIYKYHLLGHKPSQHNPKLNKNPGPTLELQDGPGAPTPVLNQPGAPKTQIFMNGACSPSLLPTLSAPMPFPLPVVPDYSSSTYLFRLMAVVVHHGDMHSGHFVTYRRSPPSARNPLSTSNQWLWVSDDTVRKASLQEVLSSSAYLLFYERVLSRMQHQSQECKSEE

[5] = molecular target: T2, Ubiquitin carboxyl-terminal hydrolase 4 (Homo sapiens); assay: Inhibition of human USP4 using ubiquitin rhodamine 110 as substrate at 10 to 50 uM by fluorometric assay

CC(NC(=O)C1CCCC1)C(=O)Nc1nnc(Cc2ccc([N+](=O)[O-])cc2)s1 (racemic)
Activity [1]: < 50% | Activity [2]: < 50% | Activity [3]: < 50%

CC(C)C[C@H](NC(=O)C1(C(F)(F)F)CCCCC1)C(=O)Nc1nnc(Cc2ccc(C#N)cc2)s1
inhibition [4]: inactive | inhibition [5]: inactive
